{"source": "paper PMC9124866", "about": "“Structure-Activity Relationships of Dopamine Transporter Pharmacological Chaperones” (Frontiers in Cellular Neuroscience, 2022)", "assay_type_in_all_cases": "cell-based", "key": {"YFP-HA-βlac-DAT": {"target": "YFP-HA-βlac-DAT (Homo sapiens, UniProt Q01959)", "sequence (Q01959 1-171 limits assumed)": "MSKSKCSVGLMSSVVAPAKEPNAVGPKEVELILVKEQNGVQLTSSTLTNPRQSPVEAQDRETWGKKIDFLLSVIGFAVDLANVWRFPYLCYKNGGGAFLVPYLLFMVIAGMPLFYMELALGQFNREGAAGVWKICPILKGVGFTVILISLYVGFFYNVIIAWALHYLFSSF", "sequence (Q01959 237-620 limits assumed)": "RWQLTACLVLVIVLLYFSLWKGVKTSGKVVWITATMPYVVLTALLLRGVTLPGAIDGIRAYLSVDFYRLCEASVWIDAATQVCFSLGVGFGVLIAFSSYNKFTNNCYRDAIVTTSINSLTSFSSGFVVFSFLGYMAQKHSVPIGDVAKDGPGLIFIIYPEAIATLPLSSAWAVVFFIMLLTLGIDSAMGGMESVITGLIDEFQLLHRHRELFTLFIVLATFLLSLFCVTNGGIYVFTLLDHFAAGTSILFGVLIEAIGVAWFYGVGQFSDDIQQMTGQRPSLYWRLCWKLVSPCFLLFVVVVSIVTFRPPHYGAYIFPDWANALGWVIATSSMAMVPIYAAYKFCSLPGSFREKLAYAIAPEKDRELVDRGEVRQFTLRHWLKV", "assay": "β-lactamase (βlac) surface expression assay", "conditions": "HEK293, read-out: EMax (%), WT DAT surface expression, HEK cells expressing YFP-HA-βlac-DAT, overnight (16 h) incubation, up to 100 μM, normalized to vehicle; assumed effective EMax", "description": "The βlac surface expression assay was performed by following the method outlined in [Lam et al. (2013)] and [Beerepoot et al. (2015], [2016)]. The assay substrate nitrocefin (BD biosciences) was dissolved in dimethyl sulfoxide (DMSO) at a concentration of 10 mM and frozen at −80°C. Immediately before use, it was thawed and diluted to a final concentration of 100 μM in phosphate buffered saline (PBS). Cells (1 × 10^5/well) were seeded into a poly-D-lysine-coated 48-well plate and incubated for 24 h, prior to drug treatment. Drugs were added to individual wells at varying concentrations and incubated for 16 h. Subsequently, the media was aspirated, and the cells were washed twice with PBS. After removal of the final PBS wash, 200 μL of the nitrocefin solution was added to each well and the absorbance was immediately read. The EPOCH microplate spectrophotometer (BioTek) was used to measure absorbance (486 nm) for each well every minute for 30 min. The rate of reaction (slope of the curve) was used as the readout for the assay ([Beerepoot et al., 2015]). To determine suitable concentration ranges for each drug, they were dissolved in PBS or DMSO at the highest concentration possible. From here, the solutions were serial diluted 1/10 to yield 8 different concentrations. βLAC cells were then treated with the varying drug concentrations and cell viability was recorded using light microscopy. For additional measure, nitrocefin was added and the absorbance was read. For certain cases, Trypan Blue was used to quantitatively differentiate increased cell death from reduced cell division. […] Five or six doses were generally used in subsequent dosing experiments, starting at the highest non-toxic concentration.\nData analysis was performed using GraphPad Prism (GraphPad Software, La Jolla, CA). Linear regression analysis was performed on βLAC time points to determine the slope, thus the rate of reaction, for comparison. Furthermore, the slope was also used to determine the degree of dopamine uptake in the dopamine uptake assays. Non-linear regression, fitting to the log(agonist) vs. response and log(inhibitor) vs. response model curve, was used to determine dose-response relationships of surface expression and uptake assays, respectively. One-way ANOVA with Dunnett’s post hoc-test was used for the β-lactamase assay and one-way ANOVA with Bonferroni correction was used for western blot analysis.\nAmong these were RTI-1, RTI-2, RTI-5, RTI-6, RTI-11, RTI-20, and PAL-1007. […] The EMax values of all the analyzed drugs are included in Figure 1.\nThe pharmacological chaperone ability of the 15 ibogaine and tryptamine analogs, shown in Figure 3, were measured using the βlac surface expression assay. HEK cells expressing YFP-HA-βlac-DAT were incubated overnight with these compounds at concentrations varying by log and half-log dilutions, starting at 100 μM final concentration. […] Furthermore, it was important to determine whether the β-carboline analogs could also elicit a chaperone effect because they are not classified as DAT ligands ([Cao et al., 2007]). […] Removing the nitrogen from the ring reduced efficacy as observed with frovatriptan (103 ± 1.4%). […] Evodiamine (54 ± 1.7%) had no chaperone ability and caused a substantial reduction in the surface expression of DAT. Dose-response curves were generated to assess the pharmacological chaperone potencies of select compounds (Figure 4)."}, "K590A DAT": {"target": "T1, K590A DAT (Homo sapiens, UniProt Q01959, K590A)", "T1 construct": "expressed in transfected cells; host or cells: HEK293", "T1 sequence (Q01959 whole entry K590A)": "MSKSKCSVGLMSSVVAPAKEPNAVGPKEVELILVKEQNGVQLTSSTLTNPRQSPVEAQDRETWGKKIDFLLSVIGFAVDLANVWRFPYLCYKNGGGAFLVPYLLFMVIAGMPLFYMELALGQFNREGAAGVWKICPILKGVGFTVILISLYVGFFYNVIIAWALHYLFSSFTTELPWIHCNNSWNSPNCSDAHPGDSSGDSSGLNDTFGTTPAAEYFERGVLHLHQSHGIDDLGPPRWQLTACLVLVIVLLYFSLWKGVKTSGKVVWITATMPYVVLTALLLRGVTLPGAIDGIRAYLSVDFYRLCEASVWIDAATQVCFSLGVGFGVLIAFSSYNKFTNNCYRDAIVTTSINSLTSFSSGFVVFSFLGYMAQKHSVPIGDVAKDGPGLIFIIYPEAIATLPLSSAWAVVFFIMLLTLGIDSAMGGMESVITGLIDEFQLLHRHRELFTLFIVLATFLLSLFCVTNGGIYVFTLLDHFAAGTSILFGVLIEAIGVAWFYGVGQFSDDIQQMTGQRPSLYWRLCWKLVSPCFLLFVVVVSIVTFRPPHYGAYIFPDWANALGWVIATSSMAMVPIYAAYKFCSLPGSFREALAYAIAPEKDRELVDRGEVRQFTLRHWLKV", "assay": "Western blot of mature K590A DAT protein levels", "conditions": "overnight treatment", "description": "(§1) Cells (1 × 10^6 cells/well) were seeded onto a 6-well plate and incubated for 24 h. Cells were then treated with drugs and incubated for 16 h. After the incubation period, cells were lysed in RIPA buffer supplemented with protease inhibitors (working concentrations: pepstatin A, 5 μg/mL; leupeptin, 10 μg/mL; aprotinin, 1.5 μg/mL; benzamidine, 0.1 μg/mL; PMSF, 0.1 mM) on ice. At 4°C, cell lysates were gently shaken for 15 min followed by centrifugation at 15,000 rpm for 15 min to pellet debris. The Pierce BCA protein assay kit (Thermo Fisher Scientific, Canada) was used to determine the protein concentration of the supernatant. To reach a concentration of 40 μg of protein per 20 μL, samples were diluted in fresh RIPA buffer with 12.5% Laemmli sample buffer and 2.5% β-Mercaptoethanol prior to being heated to 55°C. The protein was then loaded on a 7.5 or 10% SDS-PAGE gel and run at 100 V for approximately an hour or until the dye front reached the bottom of the gel. Next, protein was transferred to a PVDF membrane at 22 V for 16 h or 100 V for 1 h. Blots were blocked with LI-COR blocking buffer for 1 h and incubated for 1 h at room temperature with rabbit anti-GFP (1:1,000 dilution; Life Technologies, cat#A11122). After washing three times with TBST, blots were incubated with goat anti-rabbit IRDye-680RD secondary antibody (1:15,000; LI-COR, cat#926-68071). As a loading control, blots were incubated with mouse anti-GAPDH (1:5,000, Sigma-Aldrich, Canada, cat#G8795) prior to secondary antibody goat anti-mouse IRDye-800GR (1:5,000 dilution, Rockland, Limerick, PA, cat#610-132-007). All antibodies were diluted in LI-COR blocking buffer. Additionally, REVERT total protein staining (LI-COR, Lincoln, NE) was used as a loading control. […] Mature, fully glycosylated DAT (mDAT = 110 kDa) and immature, ER-resident DAT (iDAT = 75 kDa) were visualized using the Odyssey Imaging System (LI-COR, Lincoln, NE) and Image Studio Version 5.2 software (Supplementary Figure 1).\n(§2) We next assessed whether drugs that increase DAT surface expression also increase total protein levels of DAT. Cells expressing YFP-HA-DAT were incubated with select test compounds and DAT protein levels were examined by western blot. The effects of the compounds were assessed on WT DAT and K590A DAT. The K590A mutant is a well-characterized ER-retained, trafficking-deficient DAT mutant ([Miranda et al., 2004]) that can be rescued by pharmacological chaperones ([Beerepoot et al., 2016]).\n(§3) FIGURE 5 Effect of noribogaine, tetrahydroharmine, PAL-594, bicifadine, and RTI-20 on WT and K590A DAT expression. […] (B) Quantification of WT mDAT protein levels. […] (D) Quantification of K590A mDAT protein levels. […]"}, "WT DAT (YFP-HA-DAT)": {"target": "T2, WT DAT (YFP-HA-DAT) (Homo sapiens, UniProt Q01959)", "T2 construct": "expressed in transfected cells; host or cells: HEK293", "assay": "Western blot of mature WT DAT protein levels", "conditions": "overnight 100 μM", "description": "as §1, §2, §3"}}, "data": [{"smiles": "CCC1CC2CC3c4[nH]c5ccc(O)cc5c4CCN(C2)C13", "note": "(stereo not drawn) [Noribogaine, reference compound]", "values": [{"measurement": "Emax", "setting": "YFP-HA-βlac-DAT", "result": "251 ± 17.8", "unit": "%"}, {"measurement": "K590A DAT (mDAT) protein levels", "setting": "K590A DAT", "result": "statistically significant effect"}, {"measurement": "mature WT DAT (mDAT) protein levels", "setting": "WT DAT (YFP-HA-DAT)", "result": "significantly increase"}]}]}
